Measured values as given in patent US10829473B2, “Modulators of the cystic fibrosis transmembrane conductance regulator protein and methods of use” (AbbVie Overseas S.Á.R.L., priority 2017, dated 2020).
Where two headings read alike, the source gives them in different places. Marks after values point to notes of the source that are not given here. Blank lines part the entries; values can stand above or below the molecule they belong to.

Target: T1, F508delCFTR (Homo sapiens, UniProt P13569, DEL508-508)
T1 construct: expressed in transfected cells; host or cells: CFBE41o- human lung derived epithelial cells (CFBE41o-F508delCFTR-HRP), doxycycline-inducible
T1 sequence (P13569 with tags, fused parts or gaps DEL508-508): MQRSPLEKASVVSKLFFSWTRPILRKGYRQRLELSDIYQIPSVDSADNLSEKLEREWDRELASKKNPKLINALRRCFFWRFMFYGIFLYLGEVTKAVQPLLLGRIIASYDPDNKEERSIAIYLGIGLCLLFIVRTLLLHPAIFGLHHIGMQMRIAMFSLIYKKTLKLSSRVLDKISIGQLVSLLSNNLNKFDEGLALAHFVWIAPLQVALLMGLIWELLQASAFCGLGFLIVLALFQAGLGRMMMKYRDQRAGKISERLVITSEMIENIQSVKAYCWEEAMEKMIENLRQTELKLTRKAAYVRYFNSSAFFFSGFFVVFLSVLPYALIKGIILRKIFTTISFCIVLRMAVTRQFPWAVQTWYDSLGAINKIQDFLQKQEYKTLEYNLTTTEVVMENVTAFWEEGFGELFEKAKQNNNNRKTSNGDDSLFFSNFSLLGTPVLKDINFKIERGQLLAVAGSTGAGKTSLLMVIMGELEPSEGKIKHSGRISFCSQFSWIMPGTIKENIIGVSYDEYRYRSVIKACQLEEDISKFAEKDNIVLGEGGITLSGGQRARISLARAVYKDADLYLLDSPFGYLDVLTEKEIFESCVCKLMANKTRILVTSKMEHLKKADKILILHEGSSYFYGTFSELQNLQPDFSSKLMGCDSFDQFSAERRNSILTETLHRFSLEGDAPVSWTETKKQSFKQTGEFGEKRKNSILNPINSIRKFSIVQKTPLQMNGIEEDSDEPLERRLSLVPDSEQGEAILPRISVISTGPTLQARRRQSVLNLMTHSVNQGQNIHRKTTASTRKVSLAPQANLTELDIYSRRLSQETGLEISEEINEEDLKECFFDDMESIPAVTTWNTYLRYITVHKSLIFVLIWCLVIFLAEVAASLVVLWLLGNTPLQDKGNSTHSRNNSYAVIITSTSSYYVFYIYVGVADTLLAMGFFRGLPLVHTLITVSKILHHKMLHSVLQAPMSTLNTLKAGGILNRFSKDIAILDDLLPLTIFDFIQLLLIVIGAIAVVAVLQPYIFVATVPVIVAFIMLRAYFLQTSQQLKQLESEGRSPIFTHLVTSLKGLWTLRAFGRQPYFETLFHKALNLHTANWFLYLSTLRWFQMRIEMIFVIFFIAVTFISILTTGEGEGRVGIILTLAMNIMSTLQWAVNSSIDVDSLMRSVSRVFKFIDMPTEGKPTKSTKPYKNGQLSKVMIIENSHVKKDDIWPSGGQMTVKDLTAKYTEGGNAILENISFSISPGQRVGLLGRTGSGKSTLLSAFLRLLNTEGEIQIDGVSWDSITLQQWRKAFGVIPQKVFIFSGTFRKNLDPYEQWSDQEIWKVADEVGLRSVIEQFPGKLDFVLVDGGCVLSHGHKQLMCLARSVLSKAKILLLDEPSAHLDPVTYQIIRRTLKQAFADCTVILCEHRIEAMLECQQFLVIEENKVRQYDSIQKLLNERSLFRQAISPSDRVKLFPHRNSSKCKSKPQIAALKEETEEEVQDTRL
Assay: Cell Surface Expression-Horse Radish Peroxidase (CSE-HRP) Assay;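 on EC50 (with co-corrector): co-corrector chromenyl benzoic acid corrector at 2 or 3 µM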;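 on Maximum % activity (without co-corrector): % of on-plate positive control chromenyl benzoic acid corrector at 2 or 3 µM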
Type: cell-based
Details: for Maximum % activity (with co-corrector) / Emax: maximum at any tested concentration; for Emax: read-out: Maximum % activity (without co-corrector)
In short: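 Corrector compounds were given as 8-point 3-fold series from 20 or 30 μM, with or without a 2 μM co-corrector, for 18-24 h at 33 °C. Surface HRP was read by luminol luminescence as % of positive control; variable-Hill-slope sigmoidal fitting gave EC50 from triplicate plates.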

[1] = test compound with co-corrector
[2] = test compound without co-corrector
[3] = test compound with co-corrector, read-out: EC50 (with co-corrector)
[4] = test compound without co-corrector, read-out: EC50 (without co-corrector)

SMILES: COc1cc(OC(C)C)c(C2(C(=O)NS(=O)(=O)c3cccc4[nH]ccc34)CC2)cn1 [GIII-3]
Maximum % activity (with co-corrector) [1]: +++ (≥350) | EC50 [3]: 3 to 10 µM | Emax [2]: > 150% | EC50 [4]: 3 to 10 µM

SMILES: Cc1cnc(F)cc1C1(C(=O)NS(=O)(=O)c2cccc3c2CCCN3)CC1 [GIII-7]
EC50 (with co-corrector) [1]: ++^a | Maximum % activity (with co-corrector) [1]: ++ (≥150 and <350) | EC50 (without co-corrector) [2]: ++^a | Emax [2]: < 50%

SMILES: COc1ncc(C2(C(=O)NS(=O)(=O)c3cccc4c3CCCN4)CC2)c(OC)n1 [GIII-12]
Maximum % activity (with co-corrector) [1]: + (<150) | EC50 [3]: > 10 µM | Emax [2]: < 50% | EC50 [4]: > 10 µM

SMILES: COc1ccc(C2(C(=O)NS(=O)(=O)c3cccc4c3CCCN4)CC2)c(C)n1 [GIII-15]
EC50 (with co-corrector) [1]: ++^a | Maximum % activity (with co-corrector) [1]: ++ (≥150 and <350) | EC50 (without co-corrector) [2]: ++^a | Emax [2]: < 50%

SMILES: COc1cc(C)c(C2(C(=O)NS(=O)(=O)c3cccc4c3CCCN4)CC2)cn1 [GIII-17]
EC50 (with co-corrector) [1]: ++^a | Maximum % activity (with co-corrector) [1]: ++ (≥150 and <350) | EC50 (without co-corrector) [2]: ++^a | Emax [2]: 50 to 150%

SMILES: Cc1ccc2c(S(=O)(=O)NC(=O)C3(c4cc(C5CC5)cnc4N4CCOCC4)CC3)cccc2n1 [GIII-20]
EC50 (with co-corrector) [1]: ++^a | Maximum % activity (with co-corrector) [1]: ++ (≥150 and <350) | EC50 (without co-corrector) [2]: ++^a | Emax [2]: 50 to 150%

SMILES: O=C(NS(=O)(=O)c1cccc2ccccc12)C1(c2ccc(C(F)(F)F)nc2Cl)CC1 [GIII-21]
EC50 (with co-corrector) [1]: ++^a | Maximum % activity (with co-corrector) [1]: ++ (≥150 and <350) | EC50 (without co-corrector) [2]: ++^a | Emax [2]: 50 to 150%

SMILES: CCc1cnc(N2CCOCC2)c(C2(C(=O)NS(=O)(=O)c3cccc4ncccc34)CC2)c1 [GIII-23]
Maximum % activity (with co-corrector) [1]: ++ (≥150 and <350) | EC50 [3]: > 10 µM | Emax [2]: 50 to 150% | EC50 [4]: > 10 µM

SMILES: O=C(NS(=O)(=O)c1cccc2ncccc12)C1(c2cc(C3CC3)cnc2N2CCOCC2)CC1 [GIII-25]
EC50 (with co-corrector) [1]: ++^a | Maximum % activity (with co-corrector) [1]: ++ (≥150 and <350) | EC50 (without co-corrector) [2]: ++^a | Emax [2]: 50 to 150%

SMILES: Cc1cnc(N2CCN(C)CC2)c(C2(C(=O)NS(=O)(=O)c3cccc4ncccc34)CC2)c1 [GIII-26]
Maximum % activity (with co-corrector) [1]: ++ (≥150 and <350) | EC50 [3]: > 10 µM | Emax [2]: < 50% | EC50 [4]: > 10 µM

SMILES: O=C(NS(=O)(=O)c1cccc2c1CCCN2)C1(c2ccc(C(F)(F)F)nc2Cl)CC1 [GIII-28]
Maximum % activity (with co-corrector) [1]: ++ (≥150 and <350) | EC50 [3]: > 10 µM | Emax [2]: < 50% | EC50 [4]: > 10 µM

SMILES: O=C(NS(=O)(=O)c1cccc2ncccc12)C1(c2ccc(C(F)(F)F)nc2Cl)CC1 [GIII-29]
Maximum % activity (with co-corrector) [1]: + (<150) | EC50 [3]: > 10 µM | Emax [2]: < 50% | EC50 [4]: > 10 µM

SMILES: CN1CCN(c2ncc(C3CCC3)cc2C2(C(=O)NS(=O)(=O)c3cccc4ncccc34)CC2)CC1 [GIII-31]
Maximum % activity (with co-corrector) [1]: + (<150) | EC50 [3]: > 10 µM | Emax [2]: < 50% | EC50 [4]: > 10 µM

SMILES: Cc1ccc2c(S(=O)(=O)NC(=O)C3(c4cc(C5CCC5)cnc4N4CCN(C)CC4)CC3)cccc2n1 [GIII-32]
Maximum % activity (with co-corrector) [1]: + (<150) | EC50 [3]: > 10 µM | Emax [2]: < 50% | EC50 [4]: > 10 µM

SMILES: CCc1cnc(N2CCN(C)CC2)c(C2(C(=O)NS(=O)(=O)c3cccc4ncccc34)CC2)c1 [GIII-33]
Maximum % activity (with co-corrector) [1]: + (<150) | EC50 [3]: > 10 µM | Emax [2]: < 50% | EC50 [4]: > 10 µM

SMILES: CN1CCN(c2ncc(C3CC3)cc2C2(C(=O)NS(=O)(=O)c3cccc4[nH]ccc34)CC2)CC1 [GIII-36]
Maximum % activity (with co-corrector) [1]: + (<150) | EC50 [3]: > 10 µM | Emax [2]: < 50% | EC50 [4]: > 10 µM

The remaining lines, values ahead:

EC50 (with co-corrector) [1]: ++^a | Maximum % activity (with co-corrector) [1]: ++ (≥150 and <350) | EC50 (without co-corrector) [2]: ++^a | Emax [2]: < 50%
SMILES: O=C(NS(=O)(=O)c1cccc2ncccc12)C1(c2ncc(C(F)(F)F)cc2Cl)CC1 [GIII-1]

Maximum % activity (with co-corrector) [1]: + (<150) | EC50 [3]: > 10 µM | Emax [2]: < 50% | EC50 [4]: > 10 µM
SMILES: O=C(NS(=O)(=O)c1cccc2ncccc12)C1(c2cc(Cl)cnc2C(F)(F)F)CC1 [GIII-2]

EC50 (with co-corrector) [1]: ++^a | Maximum % activity (with co-corrector) [1]: ++ (≥150 and <350) | EC50 (without co-corrector) [2]: ++^a | Emax [2]: < 50%
SMILES: CC(C)COc1cnc(Cl)c(C2(C(=O)NS(=O)(=O)c3cccc4ncccc34)CC2)c1 [GIII-5]

Maximum % activity (with co-corrector) [1]: + (<150) | EC50 [3]: > 10 µM | Emax [2]: < 50% | EC50 [4]: > 10 µM
SMILES: CCc1ccncc1C1(C(=O)NS(=O)(=O)c2cccc3ncccc23)CC1 [GIII-6]

EC50 (with co-corrector) [1]: ++^a | Maximum % activity (with co-corrector) [1]: ++ (≥150 and <350) | EC50 (without co-corrector) [2]: ++^a | Emax [2]: 50 to 150%
SMILES: COc1ccc(C2(C(=O)NS(=O)(=O)c3cccc4ncccc34)CC2)c(C)n1 [GIII-8]

EC50 (with co-corrector) [1]: ++^a | Maximum % activity (with co-corrector) [1]: ++ (≥150 and <350) | EC50 (without co-corrector) [2]: ++^a | Emax [2]: 50 to 150%
SMILES: O=C(NS(=O)(=O)c1cccc2ncccc12)C1(c2cc(C3CC3)cnc2C(F)(F)F)CC1 [GIII-10]

EC50 (with co-corrector) [1]: ++^a | Maximum % activity (with co-corrector) [1]: ++ (≥150 and <350) | EC50 (without co-corrector) [2]: ++^a | Emax [2]: 50 to 150%
SMILES: COCCOc1cnc(OC)cc1C1(C(=O)NS(=O)(=O)c2cccc3ncccc23)CC1 [GIII-11]

EC50 (with co-corrector) [1]: ++^a | Maximum % activity (with co-corrector) [1]: ++ (≥150 and <350) | Emax [2]: < 50% | EC50 [4]: > 10 µM
SMILES: CC(C)Oc1cnc(Cl)c(C2(C(=O)NS(=O)(=O)c3cccc4ncccc34)CC2)c1 [GIII-13]

Maximum % activity (with co-corrector) [1]: +++ (≥350) | EC50 [3]: 3 to 10 µM | Emax [2]: > 150% | EC50 [4]: 3 to 10 µM
SMILES: COc1cc(C2(C(=O)NS(=O)(=O)c3cccc4nc(C)ccc34)CC2)c(OCC(F)F)cn1 [GIII-14]

Maximum % activity (with co-corrector) [1]: + (<150) | EC50 [3]: > 10 µM | Emax [2]: < 50% | EC50 [4]: > 10 µM
SMILES: Cc1cnc(F)cc1C1(C(=O)NS(=O)(=O)c2cccc3ncccc23)CC1 [GIII-16]

EC50 (with co-corrector) [1]: ++^a | Maximum % activity (with co-corrector) [1]: ++ (≥150 and <350) | EC50 (without co-corrector) [2]: ++^a | Emax [2]: 50 to 150%
SMILES: COc1cc(C2(C(=O)NS(=O)(=O)c3cccc4ncccc34)CC2)c(OCC(F)F)cn1 [GIII-18]

EC50 (with co-corrector) [1]: ++^a | Maximum % activity (with co-corrector) [1]: ++ (≥150 and <350) | EC50 (without co-corrector) [2]: ++^a | Emax [2]: 50 to 150%
SMILES: COc1cc(C2(C(=O)NS(=O)(=O)c3cccc4ncccc34)CC2)c(OC(F)F)cn1 [GIII-19]

EC50 (with co-corrector) [1]: ++^a | Maximum % activity (with co-corrector) [1]: ++ (≥150 and <350) | EC50 (without co-corrector) [2]: ++^a | Emax [2]: 50 to 150%
SMILES: COc1cc(C2(C(=O)NS(=O)(=O)c3cccc4nc(C)ccc34)CC2)c(OC(F)F)cn1 [GIII-22]

Maximum % activity (with co-corrector) [1]: + (<150) | EC50 [3]: > 10 µM | Emax [2]: < 50% | EC50 [4]: > 10 µM
SMILES: COc1ncc(C2(C(=O)NS(=O)(=O)c3cccc4ncccc34)CC2)c(OC)n1 [GIII-24]

EC50 (with co-corrector) [1]: ++^a | Maximum % activity (with co-corrector) [1]: + (<150) | Emax [2]: < 50% | EC50 [4]: > 10 µM
SMILES: COc1nc(N)ccc1C1(C(=O)NS(=O)(=O)c2cccc3ncccc23)CC1 [GIII-30]

Maximum % activity (with co-corrector) [1]: + (<150) | EC50 [3]: > 10 µM | Emax [2]: < 50% | EC50 [4]: > 10 µM
SMILES: O=C(NS(=O)(=O)c1cccc2ncccc12)C1(c2cc(Cl)cnc2F)CC1 [GIII-34]

Maximum % activity (with co-corrector) [1]: + (<150) | EC50 [3]: > 10 µM | Emax [2]: < 50% | EC50 [4]: > 10 µM
SMILES: CC(C)Oc1ncc(CO)cc1C1(C(=O)NS(=O)(=O)c2cccc3ncccc23)CC1 [GIII-35]
